According to patent publication US8383629B2, “Inhibitors of 11β-hydroxysteroid dehydrogenase type 1” (Vitae Pharmaceuticals, Inc., priority 2008, dated 2013):
pIC50: −log10 of the molar value.

Target: T1, human 11β-HSD1 (Homo sapiens, UniProt P28845)
T1 construct: expressed in transfected cells; host or cells: CHO cells (microsomes)
Test: Inhibition of microsomal preparation of 11β-HSD1 (SPA, Biological Test Example 1)
Assay type: biochemical
Details: for pIC50: microsomes from CHO cells overexpressing human 11β-HSD1, read-out: IC50 Range
Description: The inhibition of microsomal preparation of 11β-HSD1 by compounds of the invention was measured essentially as previously described (K. Solly, S. S. Mundt, H. J. Zokian, G. J. Ding, A. Hermanowski-Vosatka, B. Strulovici, and W. Zheng, High-Throughput Screening of 11-Beta-Hydroxysteroid Dehydrogenase Type 1 in Scintillation Proximity Assay Format. Assay Drug Dev Technol 3 (2005) 377-384). All reactions were carried out at rt in 96 well clear flexible PET Microbeta plates (PerkinElmer). The assay begins by dispensing 49 μl of substrate solution (50 mM HEPES, pH 7.4, 100 mM KCl, 5 mM NaCl, 2 mM MgCl2, 2 mM NADPH and 160 nM [^3H]cortisone (1 Ci/mmol)) and mixing in 1 μL of the test compounds in DMSO previously diluted in half-log increments (8 points) starting at 0.1 mM. After a 10 minute pre-incubation, 50 μL of enzyme solution containing microsomes isolated from CHO cells overexpressing human 11β-HSD1 (10-20 μg/ml of total protein) was added, and the plates were incubated for 90 minutes at rt. The reaction was stopped by adding 50 μl of the SPA beads suspension containing 10 μM 18β-glycyrrhetinic acid, 5 mg/ml protein A coated YSi SPA beads (GE Healthcare) and 3.3 μg/ml of anti-cortisol antibody (East Coast Biologics) in Superblock buffer (Bio-Rad). The plates were shaken for 120 minutes at rt, and the SPA signal corresponding to [^3H]cortisol was measured on a Microbeta plate reader.

T1 sequence (P28845 whole entry): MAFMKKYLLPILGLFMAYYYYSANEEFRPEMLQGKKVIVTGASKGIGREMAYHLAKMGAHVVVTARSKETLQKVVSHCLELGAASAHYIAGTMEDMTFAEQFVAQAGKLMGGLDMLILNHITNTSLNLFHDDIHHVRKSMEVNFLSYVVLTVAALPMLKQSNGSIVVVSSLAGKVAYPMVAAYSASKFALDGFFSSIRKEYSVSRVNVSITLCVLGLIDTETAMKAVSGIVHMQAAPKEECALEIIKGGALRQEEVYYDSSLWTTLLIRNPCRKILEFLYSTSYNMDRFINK

inhibition at 0.1 µM (100 nM) [%]	inhibition at 0.111 µM (111 nM) [%]	pIC50	Average % inhibition at 111 nM (111 nM, 0.111 µM) [%]	Average % inhibition at 100 nM (100 nM, 0.1 µM) [%]	SMILES
94.9	89.4	> 7.00			CCOC(=O)CC1CC2(CCN(C(=O)/C=C/c3ccccc3C(F)(F)F)CC2)c2c(Br)cccc21 (racemic) [EXAMPLE 1, (±)-(E)-ethyl 2-(7-bromo-1′-(3-(2-(trifluoromethyl)phenyl)acryloyl)-2,3-dihydrospiro[indene-1,4′-piperidine]-3-yl)acetate]
91.7	97.4	> 7.00			O=C(O)CC1CC2(CCN(C(=O)/C=C/c3ccccc3C(F)(F)F)CC2)c2c(Br)cccc21 (racemic) [EXAMPLE 2, (±)-(E)-2-(7-bromo-1′-(3-(2-(trifluoromethyl)phenyl)acryloyl)-2,3-dihydrospiro[indene-1,4′-piperidine]-3-yl)acetic acid]
96.3		> 7.00			O=C(O)CC1CC2(CCN(C(=O)/C=C/c3ccccc3C(F)(F)F)CC2)c2c(Cl)cccc21 (racemic) [EXAMPLE 3, (±)-(E)-2-(7-chloro-1′-(3-(2-(trifluoromethyl)phenyl)acryloyl)-2,3-dihydrospiro[indene-1,4′-piperidine]-3-yl)acetic acid]
	94.2	> 7.00			O=C(O)CC1CC2(CCN(C(=O)/C=C/c3ccc(F)cc3C(F)(F)F)CC2)c2c(Cl)cccc21 (racemic) [EXAMPLE 4, (±)-(E)-2-(7-chloro-1′-(3-(4-fluoro-2-(trifluoromethyl)phenyl)acryloyl)-2,3-dihydrospiro[indene-1,4′-piperidine]-3-yl)acetic acid]
	83.3	> 7.00			O=C(O)CC1CC2(CCN(C(=O)/C=C/c3cc(F)ccc3C(F)(F)F)CC2)c2c(Cl)cccc21 (racemic) [EXAMPLE 5, (±)-(E)-2-(7-chloro-1′-(3-(5-fluoro-2-(trifluoromethyl)phenyl)acryloyl)-2,3-dihydrospiro[indene-1,4′-piperidine]-3-yl)acetic acid]
	97.4	> 7.00			NC(=O)CC1CC2(CCN(C(=O)/C=C/c3ccccc3C(F)(F)F)CC2)c2c(Cl)cccc21 (racemic) [EXAMPLE 6, (±)-(E)-2-(7-chloro-1′-(3-(2-(trifluoromethyl)phenyl)acryloyl)-2,3-dihydrospiro[indene-1,4′-piperidine]-3-yl)acetamide]
	87.3	> 7.00			CNCCN(C)C(=O)CC1CC2(CCN(C(=O)/C=C/c3ccccc3C(F)(F)F)CC2)c2c(Cl)cccc21 (racemic) [EXAMPLE 7, (±)-(E)-2-(7-chloro-1′-(3-(2-(trifluoromethyl)phenyl)acryloyl)-2,3-dihydrospiro[indene-1,4′-piperidine]-3-yl)-N-methyl-N-(2-(methylamino)ethyl)acetamide]
	85.5	> 7.00			O=C(O)CC1CC2(CCN(C(=O)/C=C/c3ccccc3Cl)CC2)c2c(Cl)cccc21 (racemic) [EXAMPLE 8, (±)-(E)-2-(7-chloro-1′-(3-(2-chlorophenyl)acryloyl)-2,3-dihydrospiro[indene-1,4′-piperidine]-3-yl)acetic acid]
	77.8	> 7.00			O=C(O)CC1CC2(CCN(C(=O)/C=C/c3cccc(Cl)c3Cl)CC2)c2c(Cl)cccc21 (racemic) [EXAMPLE 9, (±)-(E)-2-(7-chloro-1′-(3-(2,3-dichlorophenyl)acryloyl)-2,3-dihydrospiro[indene-1,4′-piperidine]-3-yl)acetic acid]
	87.7	> 7.00			Cc1ccc2c(c1)C1(CCN(C(=O)/C=C/c3ccccc3C(F)(F)F)CC1)CC2CC(=O)O (racemic) [EXAMPLE 10, (±)-(E)-2-(6-methyl-1′-(3-(2-(trifluoromethyl)phenyl)acryloyl)-2,3-dihydrospiro[indene-1,4′-piperidine]-3-yl)acetic acid]
	75.1	> 7.00			O=C(O)CC1CC2(CCN(C(=O)/C=C/c3ccccc3C(F)(F)F)CC2)c2cc(F)ccc21 (racemic) [EXAMPLE 11, (±)-(E)-2-(6-fluoro-1′-(3-(2-(trifluoromethyl)phenyl)acryloyl)-2,3-dihydrospiro[indene-1,4′-piperidine]-3-yl)acetic acid]
	90.3	> 7.00			Cc1ccc2c(c1)C(CC(=O)O)CC21CCN(C(=O)/C=C/c2ccccc2C(F)(F)F)CC1 (racemic) [EXAMPLE 12, (±)-(E)-2-(5-methyl-1′-(3-(2-(trifluoromethyl)phenyl)acryloyl)-2,3-dihydrospiro[indene-1,4′-piperidine]-3-yl)acetic acid]
94.6	94.8	> 7.00			NC(=O)CC1CC2(CCN(C(=O)/C=C/c3ccccc3C(F)(F)F)CC2)c2c(Br)cccc21 (racemic) [EXAMPLE 13, (±)-(E)-2-(7-bromo-1′-(3-(2-(trifluoromethyl)phenyl)acryloyl)-2,3-dihydrospiro[indene-1,4′-piperidine]-3-yl)acetamide]
85.6	90.9	> 7.00			NC(=O)CC1CC2(CCN(C(=O)/C=C/c3ccccc3C(F)(F)F)CC2)c2cc(F)ccc21 (racemic) [EXAMPLE 14, (±)-(E)-2-(6-fluoro-1′-(3-(2-(trifluoromethyl)phenyl)acryloyl)-2,3-dihydrospiro[indene-1,4′-piperidine]-3-yl)acetamide]
95.3	98.6	> 7.00			O=C(/C=C/c1ccccc1C(F)(F)F)N1CCC2(CC1)CC(O)c1cccc(Br)c12 (racemic) [EXAMPLE 16, (±)-(E)-1-(7-bromo-3-hydroxy-2,3-dihydrospiro[indene-1,4′-piperidine]-1′-yl)-3-(2-(trifluoromethyl)phenyl)prop-2-en-1-one]
	93.3	> 7.00			NC1CC2(CCN(C(=O)/C=C/c3ccccc3C(F)(F)F)CC2)c2c(Br)cccc21 (racemic) [EXAMPLE 18, (±)-(E)-1-(3-amino-7-bromo-2,3-dihydrospiro[indene-1,4′-piperidine]-1′-yl)-3-(2-(trifluoromethyl)phenyl)prop-2-en-1-one]
98.1		> 7.00			CNC(=O)NC1CC2(CCN(C(=O)/C=C/c3ccccc3C(F)(F)F)CC2)c2c(Br)cccc21 (racemic) [EXAMPLE 19, (±)-(E)-1-(7-bromo-1′-(3-(2-(trifluoromethyl)phenyl)acryloyl)-2,3-dihydrospiro[indene-1,4′-piperidine]-3-yl)-3-methylurea]
	78.6	> 7.00			NC1CC2(CCN(C(=O)Cc3ccccc3C(F)(F)F)CC2)c2c(Br)cccc21 (racemic) [EXAMPLE 46, (±)-1-(3-amino-7-bromo-2,3-dihydrospiro[indene-1,4′-piperidine]-1′-yl)-2-(2-(trifluoromethyl)phenyl)ethanone]
	97.6	> 7.00			O=C(O)CC1CC2(CCN(C(=O)CCc3ccccc3C(F)(F)F)CC2)c2c(Br)cccc21 (single isomer, unassigned) [EXAMPLE 70.1]
95.7		> 7.00	99.2		O=C(O)CC1CC2(CCN(C(=O)CCc3ccccc3C(F)(F)F)CC2)c2c(Br)cccc21 (single isomer, unassigned) [EXAMPLE 70.2]
96.6		> 7.00			O=C(O)CC1CC2(CCN(C(=O)/C=C/c3ccccc3C(F)(F)F)CC2)c2c(Br)cccc21 (single isomer, unassigned; isomer 1) [EXAMPLE 2.1, (±)-(E)-2-(7-bromo-1′-(3-(2-(trifluoromethyl)phenyl)acryloyl)-2,3-dihydrospiro[indene-1,4′-piperidine]-3-yl)acetic acid isomer 1]
		> 7.00		100.3	O=C(O)CC1CC2(CCN(C(=O)/C=C/c3ccccc3C(F)(F)F)CC2)c2c(Br)cccc21 (single isomer, unassigned; isomer 2) [EXAMPLE 2.2, (E)-2-(7-bromo-1′-(3-(2-(trifluoromethyl)phenyl)acryloyl)-2,3-dihydrospiro[indene-1,4′-piperidine]-3-yl)acetic acid isomer 2]
95.3	92.6	> 7.00			O=C1CC2(CCN(C(=O)/C=C/c3ccccc3C(F)(F)F)CC2)c2c(Br)cccc21 [EXAMPLE 15, (E)-7-bromo-1′-(3-(2-(trifluoromethyl)phenyl)acryloyl)spiro[indene-1,4′-piperidin]-3(2H)-one]
	81.2	> 7.00			O=C1CC2(CCN(C(=O)/C=C/c3c(Cl)cccc3Cl)CC2)c2c(Br)cccc21 [EXAMPLE 17, (E)-7-bromo-1′-(3-(2,6-dichlorophenyl)acryloyl)spiro[indene-1,4′-piperidin]-3(2H)-one]
	29	> 7.00			CC(C)(C)OC(=O)N1Cc2ccccc2C2(CCN(C(=O)/C=C/c3ccccc3C(F)(F)F)CC2)C1 [EXAMPLE 20, (E)-tert-butyl 1′-(3-(2-(trifluoromethyl)phenyl)acryloyl)-1H-spiro[isoquinoline-4,4′-piperidine]-2(3H)-carboxylate]
